# System: 922993-354-T-J3-PDC complex spheroids, viability
# Assay: Anticancer human tumor 922993-354-T-J3-PDC patient-derived endometrial carcinoma cell line growth inhibition [GQUAD]
# Details: for IC50: curve of first compound; for viability, T/C: stronger effect = lower value
# Method in brief: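 Viability of tumor cells grown as complex spheroids with endothelial and stromal cells, exposed to drug combinations. Top concentration at or near clinical Cmax (else 10 microM), diluted in half-log increments.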
# [1] = second compound 0.0316 µM, first compound 0.0316 µM
# [2] = second compound 0.0316 µM, first compound 0.1 µM
# [3] = second compound 0.0316 µM, first compound 0.316 µM
# [4] = second compound 0.0316 µM, first compound 1 µM
# [5] = second compound 0.0316 µM, first compound 3.16 µM
# [6] = second compound 0.0316 µM, first compound 10 µM
# [7] = second compound 0.1 µM, first compound 0.0316 µM
# [8] = second compound 0.1 µM, first compound 0.1 µM
# [9] = second compound 0.1 µM, first compound 0.316 µM
# [10] = second compound 0.1 µM, first compound 1 µM
# [11] = second compound 0.1 µM, first compound 3.16 µM
# [12] = second compound 0.1 µM, first compound 10 µM
# [13] = second compound 0.316 µM, first compound 0.0316 µM
# [14] = second compound 0.316 µM, first compound 0.1 µM
# [15] = second compound 0.316 µM, first compound 0.316 µM
# [16] = second compound 0.316 µM, first compound 1 µM
# [17] = second compound 0.316 µM, first compound 3.16 µM
# [18] = second compound 0.316 µM, first compound 10 µM
# [19] = second compound 1 µM, first compound 0.0316 µM
# [20] = second compound 1 µM, first compound 0.1 µM
# [21] = second compound 1 µM, first compound 0.316 µM
# [22] = second compound 1 µM, first compound 1 µM
# [23] = second compound 1 µM, first compound 3.16 µM
# [24] = second compound 1 µM, first compound 10 µM
# [25] = second compound 3.16 µM, first compound 0.0316 µM
# [26] = second compound 3.16 µM, first compound 0.1 µM
# [27] = second compound 3.16 µM, first compound 0.316 µM
# [28] = second compound 3.16 µM, first compound 1 µM
# [29] = second compound 3.16 µM, first compound 3.16 µM
# [30] = second compound 3.16 µM, first compound 10 µM
# [31] = second compound 10 µM, first compound 0.0316 µM
# [32] = second compound 10 µM, first compound 0.1 µM
# [33] = second compound 10 µM, first compound 0.316 µM
# [34] = second compound 10 µM, first compound 1 µM
# [35] = second compound 10 µM, first compound 3.16 µM
# [36] = second compound 10 µM, first compound 10 µM
# 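Also: spheroids exposed to compounds for seven days.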
# 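For viability, T/C in this document: 100% = DMSO vehicle control viability.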
smiles,measurement,setting,value
Cc1cccc(N(C)C(=O)C2C(O)CCN2c2nc(C)cc(C(F)(F)F)c2C#N)c1 (stereo not drawn) + CN(C)c1ccc(Nc2c3ccc(NC(=O)CCN4CCCC4)cc3nc3cc(NC(=O)CCN4CCCC4)ccc23)cc1,IC50,second compound 0.0316 µM,> 10 µM
same,IC50,second compound 0.1 µM,> 10 µM
same,IC50,second compound 0.316 µM,> 10 µM
same,IC50,second compound 1 µM,> 10 µM
same,IC50,second compound 3.16 µM,> 10 µM
same,IC50,second compound 10 µM,> 10 µM
same,"viability, T/C",[1],80.8%
same,"viability, T/C",[2],89.6%
same,"viability, T/C",[3],80.6%
same,"viability, T/C",[4],92.5%
same,"viability, T/C",[5],90.1%
same,"viability, T/C",[6],95.4%
same,"viability, T/C",[7],89.6%
same,"viability, T/C",[8],111%
same,"viability, T/C",[9],87.5%
same,"viability, T/C",[10],103%
same,"viability, T/C",[11],94.9%
same,"viability, T/C",[12],67.6%
same,"viability, T/C",[13],90.4%
same,"viability, T/C",[14],105%
same,"viability, T/C",[15],95.5%
same,"viability, T/C",[16],91.8%
same,"viability, T/C",[17],83.2%
same,"viability, T/C",[18],69.6%
same,"viability, T/C",[19],85.3%
same,"viability, T/C",[20],82.7%
same,"viability, T/C",[21],101%
same,"viability, T/C",[22],93.6%
same,"viability, T/C",[23],97.1%
same,"viability, T/C",[24],82.1%
same,"viability, T/C",[25],96.8%
same,"viability, T/C",[26],102%
same,"viability, T/C",[27],104%
same,"viability, T/C",[28],106%
same,"viability, T/C",[29],99.3%
same,"viability, T/C",[30],91.5%
same,"viability, T/C",[31],105%
same,"viability, T/C",[32],133%
same,"viability, T/C",[33],113%
same,"viability, T/C",[34],106%
same,"viability, T/C",[35],103%
same,"viability, T/C",[36],80.3%
CC(C)(O)C1CCC(Nc2ccc3ncc(-c4cccc(C(F)(F)F)c4)n3n2)CC1 (stereo not drawn) + Cc1cnc(CNC(=O)c2c(=O)c3ccc(N4CCCN(C)CC4)nc3n3c2sc2ccccc23)cn1,IC50,second compound 0.0316 µM,> 10 µM
same,IC50,second compound 0.1 µM,> 10 µM
same,IC50,second compound 0.316 µM,0.0316 µM
same,IC50,second compound 1 µM,< 0.0316 µM
same,IC50,second compound 3.16 µM,< 0.0316 µM
same,IC50,second compound 10 µM,< 0.0316 µM
same,"viability, T/C",[1],89.5%
same,"viability, T/C",[2],97.4%
same,"viability, T/C",[3],67.9%
same,"viability, T/C",[4],90.6%
same,"viability, T/C",[5],105%
same,"viability, T/C",[6],84.1%
same,"viability, T/C",[7],69%
same,"viability, T/C",[8],71.9%
same,"viability, T/C",[9],51.2%
same,"viability, T/C",[10],59.6%
same,"viability, T/C",[11],65.8%
same,"viability, T/C",[12],67.6%
same,"viability, T/C",[13],48.6%
same,"viability, T/C",[14],58.8%
same,"viability, T/C",[15],48.4%
same,"viability, T/C",[16],47.5%
same,"viability, T/C",[17],65.9%
same,"viability, T/C",[18],58.2%
same,"viability, T/C",[19],47.8%
same,"viability, T/C",[20],51.8%
same,"viability, T/C",[21],40.4%
same,"viability, T/C",[22],53.1%
same,"viability, T/C",[23],57.4%
same,"viability, T/C",[24],54.8%
same,"viability, T/C",[25],40.7%
same,"viability, T/C",[26],43.9%
same,"viability, T/C",[27],38.8%
same,"viability, T/C",[28],47.4%
same,"viability, T/C",[29],41.4%
same,"viability, T/C",[30],37.5%
same,"viability, T/C",[31],36.7%
same,"viability, T/C",[32],47.4%
same,"viability, T/C",[33],31%
same,"viability, T/C",[34],18.5%
same,"viability, T/C",[35],9.55%
same,"viability, T/C",[36],4.71%
C=CC(=O)N1CCN(c2nc(=O)n(-c3c(C)ccnc3C(C)C)c3nc(-c4c(O)cccc4F)c(F)cc23)C(C)C1 (stereo not drawn) + Cc1cnc(CNC(=O)c2c(=O)c3ccc(N4CCCN(C)CC4)nc3n3c2sc2ccccc23)cn1,IC50,second compound 0.0316 µM,> 10 µM
same,IC50,second compound 0.1 µM,> 10 µM
same,IC50,second compound 0.316 µM,> 10 µM
same,IC50,second compound 1 µM,> 10 µM
same,IC50,second compound 3.16 µM,> 10 µM
same,IC50,second compound 10 µM,0.0316 µM
same,"viability, T/C",[1],109%
same,"viability, T/C",[2],89.1%
same,"viability, T/C",[3],79.2%
same,"viability, T/C",[4],99.5%
same,"viability, T/C",[5],80.4%
same,"viability, T/C",[6],100%
same,"viability, T/C",[7],71.2%
same,"viability, T/C",[8],73.2%
same,"viability, T/C",[9],52.8%
same,"viability, T/C",[10],67%
same,"viability, T/C",[11],77.2%
same,"viability, T/C",[12],53.9%
same,"viability, T/C",[13],49.1%
same,"viability, T/C",[14],57.5%
same,"viability, T/C",[15],51.8%
same,"viability, T/C",[16],53.1%
same,"viability, T/C",[17],55.1%
same,"viability, T/C",[18],61.9%
same,"viability, T/C",[19],55.2%
same,"viability, T/C",[20],61.1%
same,"viability, T/C",[21],46.9%
same,"viability, T/C",[22],47.7%
same,"viability, T/C",[23],53.8%
same,"viability, T/C",[24],55.1%
same,"viability, T/C",[25],53.9%
same,"viability, T/C",[26],55.9%
same,"viability, T/C",[27],55.4%
same,"viability, T/C",[28],51.3%
same,"viability, T/C",[29],65.7%
same,"viability, T/C",[30],53.7%
same,"viability, T/C",[31],52.5%
same,"viability, T/C",[32],58.1%
same,"viability, T/C",[33],53.2%
same,"viability, T/C",[34],46%
same,"viability, T/C",[35],64%
same,"viability, T/C",[36],70%
Nc1ccn(C2OC(CO)C(O)C2(F)F)c(=O)n1 (stereo not drawn) + Cc1cnc(CNC(=O)c2c(=O)c3ccc(N4CCCN(C)CC4)nc3n3c2sc2ccccc23)cn1,IC50,second compound 0.0316 µM,< 0.0316 µM
same,IC50,second compound 0.1 µM,< 0.0316 µM
same,IC50,second compound 0.316 µM,< 0.0316 µM
same,IC50,second compound 1 µM,< 0.0316 µM
same,IC50,second compound 3.16 µM,< 0.0316 µM
same,IC50,second compound 10 µM,< 0.0316 µM
same,"viability, T/C",[1],29.4%
same,"viability, T/C",[2],28.8%
same,"viability, T/C",[3],23.6%
same,"viability, T/C",[4],21.1%
same,"viability, T/C",[5],23.4%
same,"viability, T/C",[6],21.7%
same,"viability, T/C",[7],26.3%
same,"viability, T/C",[8],23.9%
same,"viability, T/C",[9],29.4%
same,"viability, T/C",[10],21.7%
same,"viability, T/C",[11],25.2%
same,"viability, T/C",[12],27.2%
same,"viability, T/C",[13],34.3%
same,"viability, T/C",[14],34.5%
same,"viability, T/C",[15],30.5%
same,"viability, T/C",[16],30.3%
same,"viability, T/C",[17],31.5%
same,"viability, T/C",[18],27.8%
same,"viability, T/C",[19],38.1%
same,"viability, T/C",[20],50.9%
same,"viability, T/C",[21],54.8%
same,"viability, T/C",[22],34.6%
same,"viability, T/C",[23],46.1%
same,"viability, T/C",[24],39.4%
same,"viability, T/C",[25],39.6%
same,"viability, T/C",[26],45%
same,"viability, T/C",[27],48.3%
same,"viability, T/C",[28],38%
same,"viability, T/C",[29],56.3%
same,"viability, T/C",[30],41.8%
same,"viability, T/C",[31],45.1%
same,"viability, T/C",[32],33.5%
same,"viability, T/C",[33],44.8%
same,"viability, T/C",[34],41.2%
same,"viability, T/C",[35],39.2%
same,"viability, T/C",[36],33.4%

# From PubChem BioAssay AID2060489 (Molecular Pharmacology Branch, DTP, NCI, 2025)
